Laboratory results: paper PMC6522510 (Nature Communications, 2019)

Assays:
Set-up in all cases: species or system AML cell lines (8); Primary HTS, single concentration about 10 uM, Cell Titer Glo viability; log10 luminescence, per cent inhibition relative to cycloheximide control
Conditions in all cases: 72 h, relative to cycloheximide control, log10 luminescence; inhibitor
U937 = system: U937
MV4-11 = system: MV4-11
M07e = system: M07e
CMK = system: CMK
ML-2 = system: ML-2
CMS = system: CMS
MOLM-13 = system: MOLM-13
CHRF288-11 = system: CHRF288-11

SMILES	U937 %inh (U937)	MV4-11 %inh (MV4-11)	M07e %inh (M07e)	CMK %inh (CMK)	ML-2 %inh (ML-2)	CMS %inh (CMS)	MOLM-13 %inh (MOLM-13)	CHRF288-11 %inh (CHRF288-11)
Cc1cc(-c2ccccn2)cc(C)c1/C=C/c1cncc(-c2nn[nH]n2)c1 [SJ000573354-1, U12068/128/1]	1.124%	-0.7703%	-1.071%	0.3268%	-0.7476%	-3.491%	1.519%	-4.309%
Nc1nonc1-c1nc2cnccc2n1C1CCCCC1 [SJ000573355-1, SD100950-004A1]	17.92%	40.98%	-4.008%	8.293%	31.12%	13.87%	7.234%	15.53%
O=C1Nc2ccccc2/C1=C/Nc1ccc2[nH]c(=O)[nH]c2c1 [SJ000573356-1, U7003/61/1]	2.265%	43.08%	4.187%	1.313%	0.9059%	0.8831%	61.37%	4.722%
Nc1nc(-c2ccc(F)cc2)c(-c2ccc3ncccc3n2)s1 [SJ000573357-1, R5931/120/1]	3.577%	-0.2605%	0.3459%	-0.6603%	-0.2788%	0.9588%	3.49%	7.658%
CCS(=O)(=O)c1ccc(OC)c(Nc2ncc(-c3cccc(OC)c3)o2)c1 [SJ000573358-1, U15747/93/1]	5.914%	70.44%	-2.224%	8.053%	1.703%	-1.141%	73.64%	1.123%
CCCCOCCOc1nc(-c2ccc(C(=O)O)c(F)c2)sc1C [SJ000573474-2, AC 261066]	6.265%	12.22%	1.286%	1.422%	0.9412%	12.33%	4.751%	2.475e-05%
CC1(C)CCC(C)(C)c2cc(C3(c4ccc5cc(C(=O)O)ccc5c4)SCCS3)ccc21 [SJ000573478-2, MM 11253]	1.985%	1.741%	1.802%	-3.669%	0.2271%	0.01284%	2.534%	-4.46%
CCOC(=O)C1=C(N)Oc2ccc(Br)cc2[C@H]1[C@H](C#N)C(=O)OCC [SJ000574273-1, HA14-1]	6.381%	14.02%	0.5476%	4.094%	-0.1514%	0.956%	2.194%	-0.6917%
CCCS(=O)(=O)Nc1ccc(F)c(C(=O)c2c[nH]c3ncc(-c4ccc(Cl)cc4)cc23)c1F [SJ000574274-1, VEMURAFENIB | PLX-4032 | R-7204 | RG-7204 | RO-5185426 | PLX4032 | RG7204 | VEMURAFENIB (PLX4032, RG7204)]	-0.9604%	-4.805%	-0.8043%	1.427%	-0.6517%	1.477%	-2.361%	-2.721%
NC(=O)c1ccc(-c2nc(-c3ccc4c(c3)OCO4)c(-c3ccccn3)[nH]2)cc1 [SJ000574283-1, SB-431542 | SB431542]	-2.319%	0.325%	-4.824%	-2.116%	0.07602%	0.4519%	3.22%	-7.63%
CC(C)(C)c1cnc(CSc2cnc(NC(=O)C3CCNCC3)s2)o1 [SJ000574284-1, BMS-387032 | SNS-032]	69.97%	73.5%	111.6%	91.14%	59.52%	97.36%	98.7%	54.06%
Cc1cc(Nc2cc(N3CCN(C)CC3)nc(Sc3ccc(NC(=O)C4CC4)cc3)n2)n[nH]1 [SJ000574290-1, TOZASERTIB | VX-680 | MK-0457 | VX6 | VX-680 | TOZASERTIB | MK-0457 | | VX-680 (TOZASERTIB, MK-0457)]	19.84%	64.96%	61.91%	63.64%	25.05%	15.77%	88.48%	110.2%
CC(=O)Nc1cccc(-n2c(=O)n(C3CC3)c(=O)c3c(Nc4ccc(I)cc4F)n(C)c(=O)c(C)c32)c1 [SJ000574293-1, TRAMETINIB | GSK-1120212B | JTP-74057 | 1120212 | GSK-1120212 | GSK1120212 | TRAMETINIB (GSK1120212)]	11.49%	40.11%	16.11%	4.055%	27.14%	21.59%	39.84%	30.11%
N#CC[C@H](C1CCCC1)n1cc(-c2ncnc3[nH]ccc23)cn1 [SJ000574296-1, RUXOLITINIB | INCB-18424 | INCB-018424 | NCB018424 | INC-424 | INCB-424 | RUXOLITINIB | INCB-18424 | INCB-018424 | NCB018424 | INC-424 | INCB-424 | | RUXOLITINIB (INCB018424) | S-RUXOLITINIB (INCB018424)]	33.85%	11.92%	44.64%	85.02%	4.441%	86.42%	27.41%	79.68%
CCC(=O)O[C@]1(C(=O)CCl)[C@@H](C)C[C@H]2[C@@H]3C[C@H](F)C4=CC(=O)C=C[C@]4(C)[C@@]3(F)[C@@H](O)C[C@@]21C [SJ000574311-1, HALOBETASOL PROPIONATE]	2.458%	1.288%	1.449%	-5.875%	0.4055%	-1.131%	-1.713%	2.781%
COC(=O)C1=C(C)N(CCc2cc(OC)c(OC)c(OC)c2)C(=O)N[C@H]1c1ccccc1 [SJ000579768-1]	-0.6782%	3.524%	-5.412%	-0.2715%	-0.773%	-1.498%	-2.193%	-6.017%
CC1(OC(=O)C2CCCC2)C(=O)C=C2C=C(c3ccsc3)N(CCCCO)C=C2C1=O (stereo not drawn) [SJ000579780-1]	-0.2771%	-0.2702%	-0.9393%	-4.183%	-1.026%	0.1638%	6.828%	-0.7955%
CC(=O)[C@@H]1[C@@H](C)N(Cc2ccccc2)C(=O)N[C@H]1c1cccc(C(F)(F)F)c1 [SJ000579797-1]	0.542%	0.5112%	-1.436%	-5.628%	0.485%	1.099%	-2.815%	8.301%
COC(=O)CCC(=O)OC1(C)C(=O)C=C2C=C(C3CC3)N(Cc3ccc(OC)cc3)C=C2C1=O (stereo not drawn) [SJ000579817-1]	-0.6979%	0.1893%	4.577%	0.09613%	0.04263%	1.001%	6.903%	-0.5157%
COC(=O)CCCC1=CC2=CC(=O)C(C)(OC(=O)c3cccs3)C(=O)C2=CN1C1CCCCC1 (stereo not drawn) [SJ000579837-1]	1.516%	0.3457%	-0.3619%	6.006%	1.343%	-0.4009%	2.949%	2.103%
COc1ccc(C2=CC3=C(Br)C(=O)C(C)(O)C(=O)C3=CO2)cc1 (stereo not drawn) [SJ000580186-1]	1.575%	1.031%	0.3527%	-1.841%	-0.5513%	-0.7753%	3.615%	-2.02%
